Experiment [1] concerns the target Fructose-bisphosphate aldolase (Mycobacterium tuberculosis, UniProt P9WQA3). Nature of the experiment: Fluorescence-based biochemical high throughput dose response assay for inhibitors of the fructose-bisphosphate aldolase (FBA) of M. tuberculosis. The format is functional.
Experiment [2] concerns the target Endoribonuclease toxin MazF (Escherichia coli K-12, UniProt P0AE70). Nature of the experiment: activation of MazEF endoribonuclease cleavage – biochemical, fluorescence, single-stranded RNA substrate, uHTS hits, dose response (AID 588481). The format is functional.
Experiment [3] has as its target Wee1-like protein kinase (Homo sapiens, UniProt P30291). Nature of the experiment: Dose Response Cell-based Assay for Inhibitors of Wee1 Degradation. [Related pubchem assays: 1410, 1321 ]. Format: functional.
For experiment [4], the target named is Beta Lactamase (Pseudomonas aeruginosa, UniProt Q932Y6). Nature of the experiment: BLA reporter interference, concentration series – BLA reporter cells, FRET fluorescence, artefact control for TLR9-MyD88 binding inhibitor project, dose response (AID 588341).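 Note: cell based assay in CHO-K1 cells stably expressing beta-lactamase.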 Format: cell-based.
In experiment [5] the target is T1, Apoptotic protease-activating factor 1 (Homo sapiens, UniProt O14727).
T1 sequence (O14727 whole entry): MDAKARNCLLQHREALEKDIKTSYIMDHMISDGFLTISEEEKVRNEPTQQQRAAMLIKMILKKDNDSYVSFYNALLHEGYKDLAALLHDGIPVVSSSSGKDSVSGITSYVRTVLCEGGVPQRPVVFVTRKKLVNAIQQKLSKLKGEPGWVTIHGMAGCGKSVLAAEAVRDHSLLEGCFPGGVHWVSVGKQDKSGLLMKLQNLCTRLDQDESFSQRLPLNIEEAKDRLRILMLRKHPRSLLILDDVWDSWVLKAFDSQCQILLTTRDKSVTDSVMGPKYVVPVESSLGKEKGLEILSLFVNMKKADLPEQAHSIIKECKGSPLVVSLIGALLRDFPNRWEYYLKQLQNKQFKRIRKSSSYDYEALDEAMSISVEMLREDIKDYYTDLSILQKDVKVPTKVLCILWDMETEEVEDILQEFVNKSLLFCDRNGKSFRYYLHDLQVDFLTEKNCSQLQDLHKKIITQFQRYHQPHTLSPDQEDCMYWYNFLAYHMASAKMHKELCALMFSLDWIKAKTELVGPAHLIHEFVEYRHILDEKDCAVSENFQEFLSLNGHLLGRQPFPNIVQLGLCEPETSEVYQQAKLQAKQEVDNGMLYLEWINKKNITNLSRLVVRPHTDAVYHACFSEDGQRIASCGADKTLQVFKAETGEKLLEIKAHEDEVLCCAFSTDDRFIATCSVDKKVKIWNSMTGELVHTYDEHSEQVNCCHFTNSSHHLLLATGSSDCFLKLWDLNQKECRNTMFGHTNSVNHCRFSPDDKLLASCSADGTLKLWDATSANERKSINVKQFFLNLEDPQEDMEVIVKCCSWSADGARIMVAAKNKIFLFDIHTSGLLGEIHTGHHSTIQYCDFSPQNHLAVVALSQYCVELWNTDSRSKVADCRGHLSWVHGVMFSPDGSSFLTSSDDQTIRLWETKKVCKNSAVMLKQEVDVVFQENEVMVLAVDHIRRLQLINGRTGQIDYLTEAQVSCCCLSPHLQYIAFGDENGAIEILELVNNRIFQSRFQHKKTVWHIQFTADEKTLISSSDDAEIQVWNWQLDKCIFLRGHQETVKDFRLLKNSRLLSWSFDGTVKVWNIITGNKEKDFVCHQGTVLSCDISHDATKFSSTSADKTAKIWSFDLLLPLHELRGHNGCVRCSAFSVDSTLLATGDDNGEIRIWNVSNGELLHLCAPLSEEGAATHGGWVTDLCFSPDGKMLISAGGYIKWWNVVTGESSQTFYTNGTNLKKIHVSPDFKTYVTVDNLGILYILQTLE
The format is functional.

Experiment [6] addresses Polyadenylate-binding protein 1 (Homo sapiens, UniProt P11940). The experiment can be described thus: MLLE domain peptide-binding blockers, IC50 – biochemical, fluorescence polarization, FITC-PAM2 peptide, dose response (AID 602259). Format: functional. Particulars: read-out: IC50_Mean. A general note: In fluorescence polarisation assays a small probe gives low polarisation when free and higher when bound to something large.

A short description of experiment [7]: cells. The format is functional, cell-based.
In experiment [8] the test system is BJ. Nature of the experiment: BJ-TERT-LT-ST fibroblast viability loss – cell-based, RAS-independent, luminescence, dose response (AID 1935).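 Note: BJ fibroblasts immortalized with TERT plus LT and ST oncogenes.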 The format is functional. Particulars: Homo sapiens.
For experiment [9], the system named is Vero. Nature of the experiment: viability of Vero cells under compound – cytotoxicity control for flavivirus capping enzyme inhibitors (AID 588742). The format is functional. The following applies: Chlorocebus sabaeus.
For experiment [10], the target named is Heat shock cognate 71 kDa protein (Homo sapiens, UniProt P11142). Nature of the experiment: small molecules displacing fluorescent ligand from Hsc70 – biochemical, fluorescence polarization, primary screen (AID 568).
The target of experiment [11] is Eukaryotic translation initiation factor 4E (Mus musculus, UniProt P63073). Nature of the experiment: blockers of eIF4G binding by eIF4E – biochemical, TR-FRET, dose response (AID 855).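 Note: potency for disrupting eIF4E binding to eIF4GI seen as loss of FRET.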 The format is functional.
Experiment [12] deals with Small ubiquitin-related modifier 1 (Homo sapiens, UniProt P63165). Nature of the experiment: SUMO1 protein-protein binding blockers, potency – biochemical, FRET, dose response (AID 624383). Format: functional. Particulars: read-out: IC50_Mean.
For experiment [13], the target named is T2, Calpain-2 catalytic subunit (Sus scrofa, UniProt P43367).
T2 sequence (P43367 whole entry): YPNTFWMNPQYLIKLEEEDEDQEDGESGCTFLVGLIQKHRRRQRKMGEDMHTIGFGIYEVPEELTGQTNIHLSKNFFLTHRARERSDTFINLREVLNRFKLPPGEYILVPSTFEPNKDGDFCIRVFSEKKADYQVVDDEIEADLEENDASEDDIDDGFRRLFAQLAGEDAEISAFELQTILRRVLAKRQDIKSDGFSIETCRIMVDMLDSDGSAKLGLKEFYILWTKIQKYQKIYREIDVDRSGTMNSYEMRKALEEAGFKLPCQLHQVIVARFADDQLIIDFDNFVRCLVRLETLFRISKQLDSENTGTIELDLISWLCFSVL
The experiment can be described thus: m-calpain protease blockers, concentration series – biochemical, fluorogenic peptide substrate, dose response (AID 1420). Format: functional.

From ChEMBL document CHEMBL1201862, “PubChem BioAssay data set” (2004) come the findings set out here.

Activity calls are given as the source filed them.

Sequence of Wee1-like protein kinase (P30291 whole entry): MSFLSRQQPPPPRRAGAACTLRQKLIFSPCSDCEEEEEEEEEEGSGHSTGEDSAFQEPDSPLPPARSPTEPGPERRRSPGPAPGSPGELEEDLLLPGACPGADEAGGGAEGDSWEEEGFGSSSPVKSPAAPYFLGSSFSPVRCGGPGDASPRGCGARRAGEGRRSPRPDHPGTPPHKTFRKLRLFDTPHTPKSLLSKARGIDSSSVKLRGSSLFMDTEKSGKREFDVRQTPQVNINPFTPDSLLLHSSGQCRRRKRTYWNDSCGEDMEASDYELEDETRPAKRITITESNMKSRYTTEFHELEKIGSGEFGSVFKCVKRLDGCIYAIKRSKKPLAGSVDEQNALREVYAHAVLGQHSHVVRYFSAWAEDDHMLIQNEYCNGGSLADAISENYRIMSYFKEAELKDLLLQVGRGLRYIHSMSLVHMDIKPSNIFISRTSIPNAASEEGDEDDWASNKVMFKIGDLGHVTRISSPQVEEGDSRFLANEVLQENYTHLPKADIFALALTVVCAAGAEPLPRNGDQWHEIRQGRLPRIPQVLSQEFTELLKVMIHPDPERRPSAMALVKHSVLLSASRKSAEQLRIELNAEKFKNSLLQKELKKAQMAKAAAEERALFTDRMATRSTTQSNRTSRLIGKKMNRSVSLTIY
Sequence of Fructose-bisphosphate aldolase (P9WQA3 whole entry): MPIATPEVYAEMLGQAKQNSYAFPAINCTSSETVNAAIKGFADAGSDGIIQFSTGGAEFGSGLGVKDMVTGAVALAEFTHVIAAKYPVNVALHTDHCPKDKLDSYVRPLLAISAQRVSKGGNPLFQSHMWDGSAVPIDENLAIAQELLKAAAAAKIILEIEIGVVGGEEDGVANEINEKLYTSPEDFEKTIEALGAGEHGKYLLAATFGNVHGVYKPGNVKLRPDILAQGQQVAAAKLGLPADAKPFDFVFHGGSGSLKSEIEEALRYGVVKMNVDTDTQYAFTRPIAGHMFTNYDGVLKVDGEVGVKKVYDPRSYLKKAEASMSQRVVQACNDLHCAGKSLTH
Sequence of Heat shock cognate 71 kDa protein (P11142 whole entry): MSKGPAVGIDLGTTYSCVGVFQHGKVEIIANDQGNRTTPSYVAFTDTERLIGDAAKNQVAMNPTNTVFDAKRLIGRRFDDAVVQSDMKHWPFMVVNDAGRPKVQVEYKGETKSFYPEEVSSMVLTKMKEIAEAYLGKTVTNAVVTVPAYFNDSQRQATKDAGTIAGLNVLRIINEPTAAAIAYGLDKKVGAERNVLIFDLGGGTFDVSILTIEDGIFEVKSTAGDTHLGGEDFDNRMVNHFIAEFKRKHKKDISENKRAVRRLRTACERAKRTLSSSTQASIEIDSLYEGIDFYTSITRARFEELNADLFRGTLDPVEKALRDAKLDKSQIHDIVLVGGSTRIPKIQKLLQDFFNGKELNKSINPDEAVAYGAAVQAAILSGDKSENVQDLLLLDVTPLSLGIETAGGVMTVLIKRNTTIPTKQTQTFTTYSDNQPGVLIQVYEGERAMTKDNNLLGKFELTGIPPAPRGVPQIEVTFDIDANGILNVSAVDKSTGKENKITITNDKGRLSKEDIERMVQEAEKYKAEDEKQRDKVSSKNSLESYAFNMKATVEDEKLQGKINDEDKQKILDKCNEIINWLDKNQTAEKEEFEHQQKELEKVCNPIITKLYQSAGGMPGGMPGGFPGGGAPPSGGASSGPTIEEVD
Sequence of Endoribonuclease toxin MazF (P0AE70 whole entry): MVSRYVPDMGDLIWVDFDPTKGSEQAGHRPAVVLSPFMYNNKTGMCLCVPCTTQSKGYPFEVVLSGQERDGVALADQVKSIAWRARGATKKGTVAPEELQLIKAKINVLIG
Sequence of Small ubiquitin-related modifier 1 (P63165 whole entry): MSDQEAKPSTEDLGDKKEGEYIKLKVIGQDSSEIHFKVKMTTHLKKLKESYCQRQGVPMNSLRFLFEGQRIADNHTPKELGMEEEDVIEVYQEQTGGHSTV
Sequence of Eukaryotic translation initiation factor 4E (P63073 whole entry): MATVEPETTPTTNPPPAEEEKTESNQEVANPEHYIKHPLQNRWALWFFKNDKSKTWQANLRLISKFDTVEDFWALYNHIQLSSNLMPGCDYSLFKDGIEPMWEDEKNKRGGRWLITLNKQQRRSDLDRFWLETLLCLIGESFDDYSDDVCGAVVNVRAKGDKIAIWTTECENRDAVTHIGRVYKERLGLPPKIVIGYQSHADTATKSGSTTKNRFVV
Sequence of Polyadenylate-binding protein 1 (P11940 whole entry, the tested form may be a part): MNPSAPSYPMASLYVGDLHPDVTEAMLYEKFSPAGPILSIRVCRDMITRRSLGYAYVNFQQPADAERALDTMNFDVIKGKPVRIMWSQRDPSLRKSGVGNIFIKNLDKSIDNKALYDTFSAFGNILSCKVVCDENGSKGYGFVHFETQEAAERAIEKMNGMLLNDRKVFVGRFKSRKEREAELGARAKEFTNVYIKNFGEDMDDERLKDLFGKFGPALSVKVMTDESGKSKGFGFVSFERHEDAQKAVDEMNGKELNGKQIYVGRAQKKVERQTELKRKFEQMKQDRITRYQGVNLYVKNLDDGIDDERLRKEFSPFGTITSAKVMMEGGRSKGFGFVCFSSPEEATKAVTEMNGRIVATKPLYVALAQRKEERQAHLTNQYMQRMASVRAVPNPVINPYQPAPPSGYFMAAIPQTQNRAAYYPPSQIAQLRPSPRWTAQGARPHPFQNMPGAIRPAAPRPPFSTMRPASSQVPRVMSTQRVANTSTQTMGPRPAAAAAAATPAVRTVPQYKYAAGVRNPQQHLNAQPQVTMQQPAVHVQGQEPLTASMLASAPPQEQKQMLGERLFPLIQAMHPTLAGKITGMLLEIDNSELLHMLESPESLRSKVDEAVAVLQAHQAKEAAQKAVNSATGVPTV
Sequence of Beta Lactamase (Q932Y6 whole entry): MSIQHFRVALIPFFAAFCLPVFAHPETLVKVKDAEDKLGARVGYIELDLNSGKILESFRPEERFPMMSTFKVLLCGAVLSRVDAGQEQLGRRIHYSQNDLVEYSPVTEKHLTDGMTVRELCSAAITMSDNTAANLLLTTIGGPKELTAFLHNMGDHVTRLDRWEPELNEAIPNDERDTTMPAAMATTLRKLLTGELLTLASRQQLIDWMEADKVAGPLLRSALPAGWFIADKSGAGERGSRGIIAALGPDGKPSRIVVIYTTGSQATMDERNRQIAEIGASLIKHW

Turning to `N#Cc1c(N2CCCCC2)nc(N)c2c(N)nc(SCC(=O)O)cc12`, the IC50 in [1] is 8.03 µM (active). Consider `O=[N+]([O-])c1ccc(Sc2cccc[n+]2[O-])c2nonc12`, for which the figures for the EC50 in experiment [2] and in experiment [3] were > 99 µM (inactive) and > 1.84 µM (active), respectively. Moreover, in experiment [4], the IC50 is 7.63 µM (active).

Consider `CC1(C)Cc2ccccc2C2=NNC(=O)C2=N1`, for which the IC50 in [5] was 14 µM (active).

Regarding `Oc1ccc(NC(=S)N=Nc2c(O)[nH]c3ccccc23)cc1`, in experiment [6], the IC50 was > 66 µM (inactive). As to `CCCC(=O)NC(c1ccc(C(C)C)cc1)c1ccc2cccnc2c1O` (stereo not drawn), the EC50 was > 350 µM (not active) in [7] and 2.1 µM (inconclusive) in experiment [8].

Regarding `CCc1ccc(S(=O)(=O)Nc2cc(SCC(=O)O)c(O)c3ccccc23)cc1`, the CC50 in experiment [9] is 33.6 µM (active). Consider `Oc1c(Cl)cc(Cl)c(Cl)c1Cc1c(O)c(Cl)cc(Cl)c1Cl` [HEXACHLOROPHENE], for which the IC50 in experiment [10] is 27.4 µM (active); in experiment [11], 17.9 µM (active); in experiment [12] it was 38.9 µM (inactive); in [13], 3.73 µM (active).

As a reminder, the EC50 is the concentration giving half of the maximal effect. In general, CC50 refers to the concentration at which the toxic effect on the cells reaches its halfway point.
